# Assay results published in patent EP4029374A1, “NITROGEN CONTAINING SURFACTANTS FOR AGRICULTURAL USE” (Nouryon Chemicals International B.V., priority 2021, dated 2022).
# Legend:
# [1] = Solubility of prior art betaine surfactants in concentrated glyphosate salt compositions; assay type: physicochemical
# Excerpt: WO2000038523 (Huntsman, US6500784, US6653257, EP1139761) discloses an amphoteric surfactant with the structure RCONH(CH2)n N^+R^12CH2COO- wherein R1 is alkyl or hydroxyl alkyl group with C1 to C4 and n = 2 - 4, and discloses a betaine with the structure R R^12N^+CH2COO- wherein R1 is alkyl or hydroxyl alkyl group with C1 to C4. The amphoterics disclosed there mainly functioned as a co-surfactant to solubilize a ether carboxylate in to concentrated glyphosate systems. In the context of the document, there was no mention of bioefficacy of betaines or other amphoteric surfactants by themselves. […] However, without proper testing of individual surfactant, it is not possible to determine whether the effect seen in the mixture of three surfactants comes from the claimed surfactant or the other two surfactants. Moreover, no actual bioefficacy data and especially no data are provided on the degree of "overall kill" provided in the absence of surfactants and in the presence of surfactants; without such data it is not possible to determine whether or not the claimed alkyl amido betaine was effective in enhancing herbicidal activity of glyphosate under the conditions of the test reported. This patent requires Na ion to be < 0.035% for the glyphosate formulation to be stable. Moreover, it used only IPA-glyphosate as examples. It is only recently known that many soluble surfactants in IPA-glyphosate are not soluble in concentrated K or NH4 glyphosate formulations. […] Since stearyl dimethylamidopropyl betaine itself had poor solubility in concentrated potassium glyphosate system, it is expected that the solubility of stearyl dimethylamidopropyl betaine plus ether carboxylate would be even worst in the concentrated potassium glyphosate system. Therefore, the claimed formulation in claim 1 in the document may not be stable, that is not useful, in a concentrated K glyphosate system.
# US 20050170965 also indicates the aqueous glyphosate formulation is stable on storage. However, it is only recently known that many stable surfactants in IPA-glyphosate are not soluble in concentrated K or NH4 glyphosate formulations. Tests indicate that a composition of 360 g ae/l di-ammonium glyphosate could not dissolve 5.4% coco dimethyl betaine and a composition of 480 g ae/l potassium glyphosate could not dissolve 5.4% coco dimethylamidopropyl betaine. Since coco dimethyl betaine and coco dimethylamidopropyl betaine had poor solubility in concentrated potassium and di-ammonium glyphosate systems, it is expected that the claimed formulation in claim 16 of the document may not be stable in concentrated K or NH4 glyphosate systems. […]
# [2] = test system: wheat; assay: Glyphosate formulation trial on wheat (Example 5); assay type: in vivo; conditions: 168 g ae/ha; glyphosate to surfactant ratio 3 : 1; picture taken at 21DAT (FIG. 13)
# Excerpt: Cocoamine-6EO betaine was compared in the same trial with tallowamine-15EO as the positive control and the surfactant-free sample as negative control in glyphosate formulations. Glyphosate to surfactant ratio was 3 : 1.
# This can be seen from the picture at FIG. 13, taken at 21DAT.
# [3] = test system: morning glory; wheat; assay: Green house trial of glyphosate formulations, % Control (Example 3); assay type: in vivo; conditions: 930, 465 and 233 g ae/ha; 28 DAT; compared with glyphosate formulation without surfactant; result in words (FIGS. 9-10)
# Excerpt: Glyphosate formulation containing oleylamphopolycarboxy glycinate (Na salt) was compared in a green house trial with glyphosate formulation containing tallowamine-10EO (as positive control) and glyphosate alone in terms of % Control. Three glyphosate rates were used, 930 g ae/ha, 465 gae/ha, and 233 g ae/ha.
# The results are plotted in FIGS. 9-10.
# [4] = test system: morning glory (IPOHE, a broad leaf week) and winter wheat (TRZAW, a narrow leaf grass); assay: Greenhouse spray of concentrated glyphosate samples, % control at 28 DAT (Example 2); assay type: in vivo; conditions: glyphosate : surfactant 13:1, 489 and 978 g ae/H, result in words (FIGS. 7-8)
# Procedure: Table. 3 Studied glyphosate formulations using various surfactants
# The concentrated glyphosate samples were diluted to two glyphosate rates and sprayed in a green house so that the final glyphosate rates of the spray solutions were 489 and 978 g ae/H. Three samples at two rates equals six treatments that were sprayed on each of two species, morning glory (IPOHE, a broad leaf week) and winter wheat (TRZAW, a narrow leaf grass). […]
# Higher ratio means lower surfactant concentration. A ratio of 13:1 means the sample, at the same glyphosate concentration, has 4.3 times less surfactant than a sample with a ratio of 3:1.
# Sample A (glyphosate with added tallowamine-15EO) served as a positive control. Sample B containing only glyphosate without added surfactant served as a negative control.
# FIGS. 7-8 illustrates the % control results at 28 DAT.
compound,measurement,setting,value
CCCCCCCCCCCCCCCCCC(=O)NCCC[N+](C)(C)CC(=O)[O-] [stearyl dimethylamidopropyl betaine],surfactant solubility,[1]; in a composition of 51.3% potassium glyphosate,< 1.8%
Ethoxylated cocoamine (6EO) betaine [cocoamine-6EO betaine],control to wheat,[2],excellent control
coco dimethyl betaine,surfactant solubility,[1]; in a composition of 360 g ae/l di-ammonium glyphosate,< 5.4%
coco dimethylamidopropyl betaine,surfactant solubility,[1]; in a composition of 360 g ae/l potassium glyphosate,< 80 g/L
same,surfactant solubility,[1]; in a composition of 480 g ae/l potassium glyphosate,< 5.4%
oleylamphopolycarboxy glycinate (Na salt),glyphosate efficacy,[3],enhanced glyphosate efficacy
tallow diamine trimethyl di-betaine,glyphosate bioefficacy,[4],enhanced glyphosate bioefficacy even at very low rate
tallowamine-15EO,control to wheat,[2],excellent control
